{"source": "paper PMC7934871", "about": "(JCI Insight, 2021)", "key": {"exportin 7": {"target": "T1, exportin 7 (Homo sapiens, UniProt Q9UIA9)", "T1 construct": "endogenous in cells; host or cells: U251", "assay": "Immunoprecipitation of FAM-labeled peptide and Western blotting, exportin 7", "format": "binding", "conditions": "anti-FITC (FAM) immunoprecipitation, Western blotting, U251 cells", "method": "Data are representative of 3 independent experiments (n = 3).\n(§1) Whole cell lysates or tissue homogenates were prepared by using RIPA lysis buffer (50 mM Tris at pH 7.4, 150 mM NaCl, 1 mM EDTA, 0.5% NP-40, 1 mM NaF, 15% glycerol, and 20 mM β-glycerophosphate). A protease inhibitor cocktail (Mini Protease Inhibitor Cocktail; Roche) and a tyrosine phosphatase inhibitor, sodium orthovanadate (Na3VO4, 1 mM), were added freshly to the lysis buffer. Protein amounts were determined by BCA using a Thermo Fisher Scientific kit. Normalized protein amounts were subjected to an SDS-PAGE and transferred onto a nitrocellulose membrane for Western blotting. Proteins were visualized with a chemiluminescent detection kit (Pierce, Thermo Fisher Scientific). The protein levels for STAT1 (sc-346, E-23), STAT3 (sc-482, C-20), STAT5 (sc-74442, A-9), Crm1 (exportin 1) (sc-5595, H-300), CAS (exportin 2) (sc-271537, H-2), exportin 5 (sc-66885, H-300), and exportin 7 (sc-98639, H-82) were determined using antibodies from Santa Cruz Biotechnology Inc. Anti–exportin 3 (exportin T, 630622, LOS1 05-1525), anti–exportin 4 (3499-1), and anti–exportin 6 (11408-1-AP) were from MilliporeSigma, Epitomics, and Proteintech, respectively. […]"}, "pY705-STAT3": {"system": "pY705-STAT3", "assay": "Western blotting of p-STAT3 in HCT116 cells", "format": "cell-based, human", "text": "(§2) Figure 3 PS-acet.-STAT3 peptide inhibits STAT3 activity and downregulates the expression of STAT3 targets. (A) Downregulation of STAT3 activity and its downstream target proteins shown in human HCT116 colorectal cancer cells by Western blotting (data represent 1 of the 3 experiments, n = 3). PO-acet.-STAT3 and PS-STAT3-K685R peptides were used in parallel as controls. (B) STAT3 inhibition regulated the expression of proliferation and apoptotic genes, assessed by real-time quantitative PCR. Data present mean ± SD, n = 3 independent experiments, 1-way ANOVA; ***P < 0.005; **P < 0.01. […] For p53 promoter assay, data represent 3 replicates in 3 independent experiments (n = 9). For cell proliferation assay, data represent 3 independent experiments. SD is shown (n = 3). One-way ANOVA; ***P < 0.005; **P < 0.01.\nas §1, with “Proteins were visualized with a chemiluminescent detection kit (Pierce, Thermo Fisher Scientific).” left out\n(§3) Supplemental Figure 4 (related to Figure 1). […] Phosphorylation of STAT3 at Y705 and STAT5 at Y694 was detected by Western blotting after 48 hours treatment of PS-acet.-STAT3 peptide (1 µM) or napabucasin (1 µM) in HCT116 cells. […]"}, "acetyl-STAT3": {"target": "T2, acetyl-STAT3 (Homo sapiens, UniProt P40763)", "T2 construct": "endogenous in cells; host or cells: HCT116", "T2 sequence (P40763 whole entry)": "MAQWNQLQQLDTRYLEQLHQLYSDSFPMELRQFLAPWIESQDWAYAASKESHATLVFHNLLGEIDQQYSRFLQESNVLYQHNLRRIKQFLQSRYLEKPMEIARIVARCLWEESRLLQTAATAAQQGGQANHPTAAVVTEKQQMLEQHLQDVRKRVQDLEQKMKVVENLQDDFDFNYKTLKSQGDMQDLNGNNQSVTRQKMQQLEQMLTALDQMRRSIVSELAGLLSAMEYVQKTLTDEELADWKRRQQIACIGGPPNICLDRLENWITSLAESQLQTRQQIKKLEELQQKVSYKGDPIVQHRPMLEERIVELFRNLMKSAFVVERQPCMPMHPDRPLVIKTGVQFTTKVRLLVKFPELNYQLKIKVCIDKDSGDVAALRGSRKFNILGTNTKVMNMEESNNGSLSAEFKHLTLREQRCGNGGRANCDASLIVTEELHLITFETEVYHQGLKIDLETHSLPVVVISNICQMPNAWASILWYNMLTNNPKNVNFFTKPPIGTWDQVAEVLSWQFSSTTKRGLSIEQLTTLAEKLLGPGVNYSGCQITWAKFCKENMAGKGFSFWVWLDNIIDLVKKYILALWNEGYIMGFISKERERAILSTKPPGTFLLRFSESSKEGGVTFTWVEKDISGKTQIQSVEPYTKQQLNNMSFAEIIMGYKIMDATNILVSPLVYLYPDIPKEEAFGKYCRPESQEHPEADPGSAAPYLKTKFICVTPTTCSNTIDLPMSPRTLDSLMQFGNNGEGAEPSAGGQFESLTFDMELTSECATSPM", "assay": "Immunoprecipitation of PS-oligo and Western blotting, acetyl-STAT3", "format": "binding", "conditions": "HCT116 cells, immunoprecipitation of PS-oligo, Western blotting", "method": "as §1\nlabeled PS-acet.-STAT3 peptide. The fluorescence intensity of FAM-labeled PS-acet.-STAT3 peptide in the cells was quantified by flow cytometry. […]\nquantification of FAM. […]\nabove were assessed by qRT-PCR. […]"}, "pY694-STAT5": {"system": "pY694-STAT5", "assay": "Western blotting of p-STAT5 in HCT116 cells", "format": "cell-based, human", "conditions": "HCT116, 1 µM, 48 hours", "method": "as §1, §3"}, "STAT1": {"target": "T3, STAT1 (Homo sapiens, UniProt P42224)", "T3 construct": "endogenous in cells; host or cells: U251", "T3 sequence (P42224 whole entry)": "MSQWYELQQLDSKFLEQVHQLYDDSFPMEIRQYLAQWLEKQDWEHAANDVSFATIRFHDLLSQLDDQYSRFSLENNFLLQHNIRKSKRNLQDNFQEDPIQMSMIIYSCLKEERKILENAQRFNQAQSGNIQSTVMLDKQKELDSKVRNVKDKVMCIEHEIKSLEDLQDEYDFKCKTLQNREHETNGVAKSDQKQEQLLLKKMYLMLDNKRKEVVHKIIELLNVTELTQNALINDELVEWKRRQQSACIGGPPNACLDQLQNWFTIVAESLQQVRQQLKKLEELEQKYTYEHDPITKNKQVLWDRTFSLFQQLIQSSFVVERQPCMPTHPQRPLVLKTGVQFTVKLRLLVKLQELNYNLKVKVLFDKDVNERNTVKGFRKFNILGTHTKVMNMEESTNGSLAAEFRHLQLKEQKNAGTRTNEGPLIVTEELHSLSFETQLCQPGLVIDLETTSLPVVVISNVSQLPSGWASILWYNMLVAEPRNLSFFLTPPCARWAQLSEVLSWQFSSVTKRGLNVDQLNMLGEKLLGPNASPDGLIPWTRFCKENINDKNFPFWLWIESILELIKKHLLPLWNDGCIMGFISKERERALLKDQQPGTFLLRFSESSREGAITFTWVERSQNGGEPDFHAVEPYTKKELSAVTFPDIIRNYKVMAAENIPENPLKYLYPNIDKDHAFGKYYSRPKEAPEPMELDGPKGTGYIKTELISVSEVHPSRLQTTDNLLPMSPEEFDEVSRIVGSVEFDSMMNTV", "assay": "Immunoprecipitation and Western blotting, STAT1", "format": "binding", "conditions": "immunoprecipitation, Western blotting, U251 cells", "text": "Figure 2 PS-acet.-STAT3-peptide specifically binds STAT3 in the nucleus. (A) Penetration of PS-acet.-STAT3 peptide and its colocalization with STAT3 protein in U251 cells are confirmed by confocal microscopy. Scale bars: 50 μm. Insets: original magnification, ×40. (B) PS-acet.-STAT3 peptide specifically binds to STAT3 protein, not STAT1 and STAT5 proteins, shown in U251 cells by immunoprecipitation followed by Western blotting (left panel). Expression of total STAT1, STAT3, and STAT5 was confirmed by Western blotting in U251 cells (input protein level, right panel).\nWhole cell lysates or tissue homogenates were prepared by using RIPA lysis buffer (50 mM Tris at pH 7.4, 150 mM NaCl, 1 mM EDTA, 0.5% NP-40, 1 mM NaF, 15% glycerol, and 20 mM β-glycerophosphate). […] Protein amounts were determined by BCA using a Thermo Fisher Scientific kit. […] The protein levels for STAT1 (sc-346, E-23), STAT3 (sc-482, C-20), STAT5 (sc-74442, A-9), Crm1 (exportin 1) (sc-5595, H-300), CAS (exportin 2) (sc-271537, H-2), exportin 5 (sc-66885, H-300), and exportin 7 (sc-98639, H-82) were determined using antibodies from Santa Cruz Biotechnology Inc. Anti–exportin 3 (exportin T, 630622, LOS1 05-1525), anti–exportin 4 (3499-1), and anti–exportin 6 (11408-1-AP) were from MilliporeSigma, Epitomics, and Proteintech, respectively. […]"}, "p53 promoter": {"system": "p53 promoter", "assay": "Luciferase reporter gene assay, p53 promoter", "format": "cell-based, human", "conditions": "HCT116, 1 μM, overnight at 37°C", "text": "as §2\nA total of 1–2 × 10^6 HCT116 cells were seeded into each well of a 24-well plate (Cellstar) and transfected with a 13x RGC plasmid, with a Renilla luciferase construct (both plasmids provided by Bernhard Lüscher, RWTH, Aachen, Germany), using Lipofectamine 2000 (Invitrogen, Thermo Fisher Scientific), according to manufacturer’s instruction. On the following day, cells were treated with 1 μM of PO- and PS-acet.-STAT3 peptides at 37°C overnight. Luciferase activities were determined using the luciferase assay system (Promega)."}}}
{"substance": "PDIPKEEAFGK685(Ac)YCRPESQEHPC-linker-T*C*C*A*T*G*A*G*C*T*T*C*C*T*G*A*T*G*C*T [PS-acet.-STAT3 peptide]", "values": [{"measurement": "binding to exportin 7", "setting": "exportin 7", "result": "bound"}, {"measurement": "phosphorylated STAT3 (p-STAT3, Y705) level", "setting": "pY705-STAT3; HCT116, 1 µM, 48 hours", "result": "reduced"}, {"measurement": "STAT3 activation (pY705-STAT3)", "setting": "pY705-STAT3; HCT116, approximately 1 μM", "result": "significant downregulation"}, {"measurement": "binding to acetyl-STAT3", "setting": "acetyl-STAT3", "result": "directly bound"}, {"measurement": "p-STAT5 (Y694) level", "setting": "pY694-STAT5", "result": "not"}, {"measurement": "binding to STAT1 protein", "setting": "STAT1", "result": "not"}, {"measurement": "p53 promoter activity", "setting": "p53 promoter", "result": "significant increase"}]}
